# From patent publication US20140378460A1, “COMPOSITIONS AND METHODS FOR TREATING NEURODEGENERATIVE DISEASE” (COGNITION THERAPEUTICS, INC., priority 2011, published 2014)
# Like-named read-outs stand apart in the source and are kept apart here.
# Tests used:
# [1] = system: muscarinic M1-M4; details: cited from earlier work
# [2] = target: Sigma-2 receptors; details: cited from earlier work; for Ki: Table 11E, clinical compounds, second figure of S1/S2, read-out: Sigma Affinity (S2)
# [3] = system: Na + ch2; details: cited from earlier work
# [4] = target: Sigma-1 receptors; details: cited from earlier work; for Ki: Table 11E, clinical compounds, first figure of S1/S2, read-out: Sigma Affinity (S1); for Sigma 1 (Type of Activity): known prior art compounds
# [5] = target: T1, sigma-2 receptor (Rattus norvegicus, UniProt Q5U3Y7); test: Sigma-2 competitive radioligand binding, [3H]DTG with 300 nM (+)pentazocine, rat cerebral cortex membranes
# T1 sequence (Q5U3Y7 1-176): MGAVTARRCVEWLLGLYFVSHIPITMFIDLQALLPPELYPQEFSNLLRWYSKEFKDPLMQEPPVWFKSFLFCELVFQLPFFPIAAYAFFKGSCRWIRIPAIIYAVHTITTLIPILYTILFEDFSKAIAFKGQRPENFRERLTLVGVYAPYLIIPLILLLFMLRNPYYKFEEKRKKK
# Experimental: (§1) Reactions were terminated by rapid filtration through Whatman GF/C filters using a Brandel 12R cell harvester followed by two washes with ice-cold buffer. Radioactivity on the dried filter discs was measured using a liquid scintillation analyzer (Tri-Carb 2900TR; PerkinElmer Life and Analytical Sciences). The displacement curves were plotted and the Ki values of the test ligands for the receptor subtypes were determined using GraphPad Prism (GraphPad Software Inc., San Diego, Calif.). The percentage specific binding was determined by dividing the difference between total bound (disintegrations per minute) and nonspecific bound (disintegrations per minute) by the total bound (disintegrations per minute).
# [6] = target: Sigma-1 receptors (Homo sapiens, UniProt Q99720); test: Sigma-1 competitive radioligand binding, [3H](+)pentazocine, Jurkat cell membranes
# Chain of Sigma-1 receptors (Homo sapiens, UniProt Q99720) (Q99720 whole entry): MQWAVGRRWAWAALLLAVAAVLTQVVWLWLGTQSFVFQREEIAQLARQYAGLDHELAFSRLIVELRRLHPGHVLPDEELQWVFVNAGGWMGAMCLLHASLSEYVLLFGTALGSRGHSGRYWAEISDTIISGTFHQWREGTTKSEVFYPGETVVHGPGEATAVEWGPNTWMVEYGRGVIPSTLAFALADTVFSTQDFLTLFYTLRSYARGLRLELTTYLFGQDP
# Experimental: as §1
# [7] = system: Abeta oligomer-induced membrane trafficking deficits in primary hippocampal neurons; test: Membrane trafficking/exocytosis (MTT) assay; type: cell-based, rat
# Experimental: The methods used to generate the results were as follows in the Membrane Trafficking/Exocytosis (MTT) assay.
# Primary hippocampal neurons from E18 Sprague-Dawley rat embryos were plated at optimized concentrations in 384 well plates in NB media (Invitrogen). Neurons were maintained in cultures for 3 weeks, with twice weekly feeding of NB media with N2 supplement (Invitrogen).
# A test compound was added to cells at concentrations ranging from 100 uM to 0.001 nM followed by addition of vehicle or Abeta oligomer preparations (3 μM total Abeta protein concentration), and incubated for 1 to 24 hr at 37° C. in 5% CO2. MTT reagent (3-(4,5-dimethylthizaol-2-yl)-2,5diphenyl tetrazolium bromide) (Roche Molecular Biochemicals) was reconstituted in phosphate buffered saline to 5 mg/mL. 10 μl, of MTT labeling reagent is added to each well and incubated at 37° C. for 1 h, then imaged. Exocytosis was assessed by automated microscopy and image processing to quantify the amount of endocytosed and exocytosed formazan.
# Each assay plate was formatted so that compounds are tested with and without Abeta oligomer on each plate.
# [8] = system: Abeta oligomer-induced synapse loss in primary hippocampal neurons; test: Synapse loss assay; type: cell-based, rat; details: for Block synapse loss: Table 11B
# Experimental: In this assay, Abeta oligomers were brought in contact with mature primary neurons in culture and their binding was determined by immunohistochemistry (anti-Abeta antibody) and quantified by image processing. The amount of Abeta in neuronal dendrites is assessed by counting the number of labeled puncta on the neuritis. […] This labeling is associated with synapses, co-localizing with the post-synaptic scaffold protein PSD-95 (Lacor et al., '04). […] The number of synapses can also be quantified in this assay by immunofluorochemistry. Similar procedures for binding assays can be found in the literature. […] Review.
# Primary hippocampal neuronal culture was established as in the membrane trafficking assay above. […] Pretreatment with compounds to be tested lasted for 1 hr and addition of Abeta oligomers or no oligomer (vehicle alone) in a final concentration of 70 ul was followed by incubation for an additional 23 hrs.
# The plates were then washed 3× with PBS for 5 min each. The plates were blocked at RT for 1 hr in 5% goat serum and 0.5% Triton X-100 in PBS. […] Primary antibodies were incubated overnight at 4° C. The plates were then washed 3× with PBS for 5 min each. […] Secondary antibodies were incubated at RT for 1 hr. The plates were washed once with PBS. DAPI (4′,6-diamidino-2-phenylindole, Invitrogen) was then applied at 0.03 ug/ul and incubated at RT for 5 min, then washed with PBS.
# [9] = target: NMDAR2B (Homo sapiens, UniProt Q13224); details: cited from earlier work
# Chain of NMDAR2B (Q13224 27-1484, species assumed, other chains not shown): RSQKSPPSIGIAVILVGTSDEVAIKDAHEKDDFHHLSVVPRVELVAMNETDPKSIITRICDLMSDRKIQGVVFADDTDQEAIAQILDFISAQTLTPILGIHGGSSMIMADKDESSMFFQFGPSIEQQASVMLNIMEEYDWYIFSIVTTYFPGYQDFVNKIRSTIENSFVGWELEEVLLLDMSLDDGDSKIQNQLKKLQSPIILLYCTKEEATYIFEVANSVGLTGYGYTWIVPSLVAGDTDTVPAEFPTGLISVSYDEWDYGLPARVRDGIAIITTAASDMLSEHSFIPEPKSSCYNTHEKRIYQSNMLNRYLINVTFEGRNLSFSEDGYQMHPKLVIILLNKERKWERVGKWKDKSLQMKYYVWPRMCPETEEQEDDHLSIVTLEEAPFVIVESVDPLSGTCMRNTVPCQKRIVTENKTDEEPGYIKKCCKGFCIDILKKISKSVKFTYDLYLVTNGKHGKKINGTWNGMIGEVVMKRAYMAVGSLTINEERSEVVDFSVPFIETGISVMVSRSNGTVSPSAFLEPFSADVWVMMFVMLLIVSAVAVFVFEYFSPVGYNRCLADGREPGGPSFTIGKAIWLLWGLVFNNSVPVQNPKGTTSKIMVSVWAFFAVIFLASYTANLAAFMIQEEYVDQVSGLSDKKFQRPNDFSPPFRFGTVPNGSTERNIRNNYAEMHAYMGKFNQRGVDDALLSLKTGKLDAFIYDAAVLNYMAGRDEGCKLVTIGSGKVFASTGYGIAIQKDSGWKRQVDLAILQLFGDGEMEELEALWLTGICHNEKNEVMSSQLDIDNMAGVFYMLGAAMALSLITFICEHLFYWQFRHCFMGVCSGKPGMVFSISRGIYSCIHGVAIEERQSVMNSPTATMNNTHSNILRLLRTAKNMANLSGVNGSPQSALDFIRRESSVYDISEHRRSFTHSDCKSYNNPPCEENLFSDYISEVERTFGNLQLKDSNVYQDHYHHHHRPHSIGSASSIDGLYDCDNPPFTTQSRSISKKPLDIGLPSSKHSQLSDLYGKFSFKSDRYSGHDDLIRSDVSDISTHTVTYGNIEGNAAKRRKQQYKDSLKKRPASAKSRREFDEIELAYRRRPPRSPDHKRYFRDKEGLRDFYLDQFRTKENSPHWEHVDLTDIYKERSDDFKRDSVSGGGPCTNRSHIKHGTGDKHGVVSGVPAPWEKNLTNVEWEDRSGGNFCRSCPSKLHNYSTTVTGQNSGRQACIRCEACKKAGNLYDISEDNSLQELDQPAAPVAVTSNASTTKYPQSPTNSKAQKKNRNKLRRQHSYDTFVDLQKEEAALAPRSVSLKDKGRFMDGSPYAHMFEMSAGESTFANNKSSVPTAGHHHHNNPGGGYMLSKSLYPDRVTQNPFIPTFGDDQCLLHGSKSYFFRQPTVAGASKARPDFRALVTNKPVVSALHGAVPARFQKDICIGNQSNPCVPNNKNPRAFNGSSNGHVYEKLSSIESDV
# [10] = system: caspase-3 in SKOV-3 human ovarian cancer cells; test: Caspase-3 activity in tumor cells; type: cell-based
# [11] = system: neuronal cultures
# [12] = system: caspase-3 in neuronal cultures; test: Caspase-3 activity in neurons; type: cell-based
# [13] = system: SKOV-3 human ovarian cancer cell line; test: MTS tumor cell viability assay; type: cell-based; details: for Action: by EC50 relative to siramesine; for IC50: Homo sapiens, SK-OV-3, tumor cell viability, 48 hrs
# Experimental: The cytotoxicity of compounds shown below was determined using the CellTiter96 Aqueous One Solution Assay (Promega, Madison, Wis.). […] The plate was read at 490 nm in a Victor3 plate reader (PerkinElmer Life and Analytical Sciences, Shelton, Conn.). The EC^50 value, defined as the concentration of the sigma ligand required to inhibit cell viability by 50% relative to untreated cells, was determined from the dose response curve for each cell line.
# [14] = list wraps over the rows below; first line given; cited from earlier work
# [15] = target: T1, sigma-2 receptor; design: other: known prior art compounds, published studies; details: cited from earlier work
# [16] = target: T2, Sigma-1 receptors (UniProt Q60492); details: cited from earlier work
# T2 construct: other: known prior art compounds, published studies
# [17] = Drug-like properties of known compounds (BBB, oxidative metabolism); details: (Oxidative substr.; Not BBB, Ox Sub.); first line given
# [18] = system: K+ ch; details: b58; cited from earlier work
# [19] = Rattus norvegicus, Hippocampal neuron, dosed prior to Abeta oligomer addition, read-out: EC50 in inhibiting amyloid beta effect in Cell Measured by Membrane Trafficking Assay
# [20] = Sigma 2 Binding Ki (nM), Table 2, own compounds
# [21] = Sigma 1 Binding Ki (nM), Table 2, own compounds
# [22] = Table 11C, read-out: S2 binding Ki
# [23] = Table 11D, read-out: Sigma-2 Receptor Ki
# [24] = known prior art compounds, published studies, read-out: Sigma 2 Binding Ki
# [25] = Table 11C, known prior art compounds, read-out: Inhibition Abeta oligomer-induced Membrane Trafficking EC50
# [26] = Table 11D, read-out: Membrane trafficking IC50
# [27] = Table 11C, read-out: S1 binding Ki
# [28] = Table 11D, read-out: Sigma-1 Receptor Ki
# [29] = known prior art compounds, published studies, read-out: Sigma 1 Binding Ki
# [30] = read-out: S2 binding Ki, Table 11C
# [31] = Rattus norvegicus, Hippocampal neuron, Table 11C, known prior art compounds, read-out: Inhibition Abeta oligomer-induced Membrane Trafficking EC50
compound,measurement,setting,value
CN(C)CC1COC(c2ccccc2)(c2ccccc2)C1 (stereo not shown) [Anavex 1-41],Other Targets: muscarinic M1-M4,[1],"(18-114 nM), Na +"
same,Ki,[2],> 10000 nM
same,Other Targets: Na + ch2,[3],ch2 (>10 uM)
same,Ki,[4],7 nM
CC(C)=CC(C[C@H](C)c1ccc(C)cc1)NCC(C)C (stereo partly shown) [Compound IXa],Ki,[5],21 nM
same,Ki,[6],89 nM
same,Max Inhibition of Abeta (%),[7],76%
same,EC50,[7]; [19],4900 nM
"COc1cc(CCC(C)NCc2ccc(C(F)(F)F)cc2)ccc1O (single isomer, unassigned) [II (−) isomer]",Ki,"[5]; S2 binding Ki (nM), Table 11B",63 nM
same,Ki,[5]; [20],63 nM
same,Ki,"[6]; S1 binding Ki (nM), Table 11B",46 nM
same,Ki,[6]; [21],46 nM
same,Block synapse loss,[8],0%
same,Functional Neuronal Phenotype,[7]; Table 11B,Antagonist
CN(C)CC1CCOC1(c1ccccc1)c1ccccc1 (stereo not shown) [Anavex 2-73],Other Targets: NMDAR2B,[9],NMDAR2B (8 uM
same,Other Targets: muscarinic M1-M4,[1],"(3-5 uM),"
same,Ki,[2],> 20000 nM
same,Other Targets: Na + ch2,[3],(5 uM)
same,Ki,[4],860 nM
"COc1cc2c(cc1OC)CN(CCCCNC(=O)c1cc(C)ccc1OC)CC2 [RHM-1, N-[4-(3,4-dihydro-6,7-dimethoxyisoquinolin-2(1H)-yl)butyl]-2-methoxy-5-methylbenzamide]",Block of SV-119-induced caspase-3 activation in tumor cells,[10],do not block caspase-3 activation
same,Caspase-3 activity induced in tumor cells,[10],did not induce caspase-3 activity
same,Nuclear morphology / nuclear intensity in neurons,[11],did not decrease nuclear intensity
same,Caspase-3 activity induced in neurons,[12],did not induce caspase-3 activity
same,Action,[13],Antagonist
same,Effect on Abeta oligomer trafficking deficits over the concentrations tested,[7],blocks oligomer-induced trafficking deficits at all concentrations tested
CCC(Oc1ccc(Cl)cc1)C(=O)OC1CC2CCC(C1)N2C (stereo not shown) [SM-21],Selectivity other activities,[14],Muscarinic
same,Ki,[15]; [22],145 nM
same,Ki,[15]; [23],145 nM
same,Ki,[15]; [24],145 nM
same,Abeta oligomer-induced synapse loss eliminated / recovery,[8]; b801,20%
same,Max Inhibition of Abeta (%),[7],65%
same,Functional Neuronal Phenotype,[7]; Table 11C,Antagonist
same,EC50,[7]; [25],2200 nM
same,Functional Neuronal Phenotype,[7]; Table 11D,Antagonist
same,IC50,[7]; [26],2.2 µM
same,Ki,[16]; [27],1050 nM
same,Ki,[16]; [28],1050 nM
same,Ki,[16]; [29],1050 nM
same,Sigma 1 (Type of Activity),[4],(antagonist)
COc1ccc(C)cc1NC(=O)OC1CC2CCCC(C1)N2CCCCCCN (stereo not shown) [SV-119],Caspase-3 activity induced in tumor cells,[10],caspase-3 activation
same,Nuclear morphology / nuclear intensity in neurons,[11],caused significant abnormal nuclear morphology
same,Ki,[15]; [30],8 nM
same,Caspase-3 activity induced in neurons,[12],caspase-3 activation
same,IC50,[13],21700 ± 2900 nM
same,Action,[13],Full agonist
same,Effect on Abeta oligomer trafficking deficits over the concentrations tested,[7],"blocks Abeta oligomer trafficking deficits at low concentrations, but causes cellular toxicity at high concentrations"
same,EC50,[7]; [31],2600 nM
same,Functional Neuronal Phenotype,[7]; Table 11C,Agonist
same,Ki,[16]; [27],1400 nM
"CC(C)=CCN1CCC2(C)c3cc(O)ccc3CC1C2C (single isomer, unassigned; (+)) [(+) Pentazocine, (+)-pentazocine]",Drug-like properties,[17],Yes
same,Ki,"[15]; read-out: Sigma-2 Receptor Ki, Table 11D",> 5000 nM
same,IC50,"[7]; Rattus norvegicus, Hippocampal neuron, read-out: Membrane trafficking IC50 (uM)",7.6 µM
same,Functional Neuronal Phenotype,[7]; Table 11D,Antagonist
"O=C(CCCN1CCC(O)(c2ccc(Cl)cc2)CC1)c1ccc(F)cc1 [Haloperidol, haloperidol]",Drug-like properties,[17],Yes
same,Effect on Abeta oligomer-induced synapse loss,[8],completely eliminated synapse loss
same,Max Inhibition of Abeta (%),[7],100%
same,Functional Neuronal Phenotype,[7]; Table 11C,Antagonist
same,Functional Neuronal Phenotype,[7]; Table 11D,Antagonist
same,Sigma 1 (Type of Activity),[4],(antagonist)
"C[C@@H]([C@@H](O)c1ccc(O)cc1)N1CCC(Cc2ccccc2)CC1 [Threo-ifenprodil (TIF), Threo-ifenprodil]",Affinity K+ ch,[18],88 nM
same,Sigma 2 type of activity,[2]; in brackets after the Ki,agonist
same,Effect on Abeta oligomer trafficking deficits over the concentrations tested,[7],"does not cause apoptosis, affect trafficking or interfere with Abeta oligomer-induced trafficking deficits when dosed alone"
same,Max Inhibition of Abeta (%),[7],39%
same,Functional Neuronal Phenotype,[7]; Table 11C,Inactive
same,EC50,[7]; [25],> 20000 nM
COc1ccc(C)cc1NC(=O)OC1CC2CCCC(C1)N2Cc1ccc(N(C)C)cc1 (stereo not shown) [WC-26],Nuclear morphology / nuclear intensity in neurons,[11],caused significant abnormal nuclear morphology
same,Ki,[15]; [30],3 nM
same,IC50,[13],65600 ± 6300 nM
same,Action,[13],Partial agonist
same,EC50,[7]; [31],1600 nM
same,Functional Neuronal Phenotype,[7]; Table 11C,Agonist
same,Ki,[16]; [27],1400 nM
"COc1cc(CCC(C)NCc2ccc(C(F)(F)F)cc2)ccc1O (single isomer, unassigned) [II (+) isomer]",Ki,"[5]; S2 binding Ki (nM), Table 11B",80 nM
same,Ki,[5]; [20],52 nM
same,Ki,"[6]; S1 binding Ki (nM), Table 11B",100 nM
same,Ki,[6]; [21],100 nM
same,Block synapse loss,[8],47%
same,EC50,"[7]; Rattus norvegicus, Hippocampal neuron, Table 11B, read-out: Inhibition Abeta oligomer-induced Membrane Trafficking EC50",5600 nM
same,Functional Neuronal Phenotype,[7]; Table 11B,Antagonist
CN(C)CCN(C)CCc1ccc(Cl)c(Cl)c1 [BD1047],Selectivity other activities,[14],"D2, β3-AR"
same,Ki,[15]; [22],47 nM
same,Ki,[15]; [23],47 nM
same,Ki,[15]; [24],47 nM
same,Max Inhibition of Abeta (%),[7],100%
same,Functional Neuronal Phenotype,[7]; Table 11C,Antagonist
same,EC50,[7]; [25],2400 nM
same,Functional Neuronal Phenotype,[7]; Table 11D,Antagonist
same,IC50,[7]; [26],2.4 µM
same,Ki,[16]; [27],0.9 nM
same,Ki,[16]; [28],0.9 nM
same,Ki,[16]; [29],0.9 nM
same,Sigma 1 (Type of Activity),[4],(antagonist)
CCCN(CCC)CCc1ccc(OC)c(OCCc2ccccc2)c1 [NE-100],Effect on Abeta oligomer-induced synapse loss,[8],completely eliminated synapse loss
Cc1ccc([C@@H](C)CC(CC(C)(C)O)NCC(C)C)cc1 (stereo partly shown) [Compound IXb],Ki,[5],23 nM
same,Ki,[6],190 nM
same,Max Inhibition of Abeta (%),[7],97%
same,EC50,[7]; [19],6900 nM
